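Step 1: Grow cells in 96-well plates. Step 2: Expose to compound for 48 hours at 5 concentrations. Step 3: Interpolate endpoints linearly; if unreached, use highest concentration. GI50: concentration for 50% inhibition of growth. TGI denotes the concentration required for complete inhibition of growth.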
What was measured:
Experiment in all cases: NCI-60 cell line screen, 48 h
[1] = system: SK-OV-3 ovarian
[2] = system: DU-145 prostate
[3] = system: COLO 205 colon
[4] = system: SNB-19 CNS
[5] = system: SF-539 CNS
[6] = system: LOX IMVI melanoma
[7] = system: RXF 393 renal
[8] = system: SF-268 CNS
[9] = system: NCI-H226 lung
[10] = system: SK-MEL-28 melanoma

| Compound | GI50 [1] | TGI [1] | GI50 [2] | TGI [2] | GI50 [3] | TGI [3] | GI50 [4] | TGI [4] | GI50 [5] | TGI [5] | GI50 [6] | TGI [6] | GI50 [7] | TGI [7] | GI50 [8] | TGI [8] | GI50 [9] | TGI [9] | GI50 [10] | TGI [10] |
| --- | --- | --- | --- | --- | --- | --- | --- | --- | --- | --- | --- | --- | --- | --- | --- | --- | --- | --- | --- | --- |
| CCOC(=O)Sc1ncnc2nc[nH]c12 | 0.484 µM | > 100 µM | 0.586 µM | > 100 µM | 3.92 µM | 46.4 µM | 85 µM | > 100 µM | 2.35 µM | > 100 µM | 0.348 µM | > 100 µM | 15.1 µM | > 100 µM | 3.89 µM | > 100 µM | 4.46 µM | > 100 µM | 43.7 µM | > 100 µM |
| Cc1ccc(C(=NN=C(N)N)c2ccc(C)cc2)cc1 | 1.16 µM | 10.2 µM | 0.313 µM | 1.16 µM | 0.445 µM | 1.41 µM | 2.23 µM | 18.4 µM | 2.1 µM | 6.99 µM | 0.587 µM | 3.38 µM | 0.509 µM | 1.73 µM | 0.636 µM | 6.57 µM | 1.69 µM | 10.9 µM | 2.2 µM | 6.7 µM |
| COc1ccc(C(=O)COc2cccc(/C=C3\COc4ccc5ccccc5c4C3=O)c2)cc1 | 82.2 µM | > 100 µM | 4.25 µM | > 100 µM | 16.9 µM | > 100 µM | 9.37 µM | > 100 µM | 13.3 µM | > 100 µM | 5.41 µM | > 100 µM | 9.8 µM | > 100 µM | 7.83 µM | > 100 µM | 15.4 µM | > 100 µM | 47.8 µM | > 100 µM |
| CC(=O)OC1CC(O)C23COC(O)C1(C)C2CC(O)C1(C)C3C(=O)C(O)C2(C)C(c3ccoc3)CC3OC321 (stereo not given) | > 100 µM | > 100 µM | 0.9 µM | > 100 µM | < 0.01 µM | > 100 µM | > 100 µM | > 100 µM | 0.14 µM | > 100 µM | < 0.01 µM | 12.5 µM | > 100 µM | > 100 µM | 2.2 µM | > 100 µM | < 0.0188 µM | 18.4 µM | > 100 µM | > 100 µM |
| CC(=O)OC1Oc2ccccc2-c2oc(=O)c(-c3cc4ccc(N(C)C)cc4oc3=O)cc21 (stereo not given) | 13 µM | 45.5 µM | 12 µM | 27.7 µM | 16.4 µM | 41.5 µM | 13.1 µM | 36 µM | 12.4 µM | 27.3 µM | 10.4 µM | 23 µM | 3.54 µM | 15.2 µM | 10.6 µM | 32.2 µM | 11.2 µM | 28.3 µM | 19.9 µM | 56.4 µM |
| CC1CN1CC(O)C(O)CN1CC1C (stereo not given) | 6.11 µM | > 100 µM | 0.48 µM | 9.28 µM | 5.45 µM | > 38.5 µM | 6.21 µM | > 100 µM | 1.84 µM | 45.4 µM | 0.814 µM | 11.4 µM | 2.04 µM | 8.77 µM | 0.716 µM | > 53.5 µM | 5.23 µM | 50.1 µM | 17.5 µM | 97.4 µM |
| CN(C)c1ccc(N)cc1 | 13.1 µM | 58 µM | 6.05 µM | 48.1 µM | 1.97 µM | 4.54 µM | 4.35 µM | > 100 µM | 10.3 µM | 25.5 µM | 3.94 µM | 14.7 µM | 10.4 µM | 26 µM | 6.96 µM | 32.7 µM | 12.4 µM | 48 µM | 7.81 µM | 22.3 µM |
| CC(C)c1ccc(C(=O)Nc2sc3c(c2C(N)=O)CCC(=O)C3)cc1 | 2.62 µM | 8.02 µM | 3.16 µM | 14.3 µM | 0.564 µM | 1.9 µM | 0.472 µM | 6.02 µM | 0.359 µM | 1.49 µM | 0.373 µM | 1.71 µM | 0.354 µM | 1.49 µM | 0.571 µM | 3.45 µM | 2.42 µM | 7.23 µM | 1.18 µM | 3.01 µM |
| COc1ccc(C(C)c2cc3c(cc2OC)OCO3)cc1 (stereo not given) | – | 27 µM | – | > 21.9 µM | – | 0.927 µM | – | > 100 µM | – | 0.275 µM | – | 27.3 µM | – | > 100 µM | – | > 56.2 µM | – | 20.6 µM | – | > 100 µM |
| CCc1[nH]c(=O)nc(N)c1-c1ccc(N2CCCCC2)c([N+](=O)[O-])c1 | – | > 100 µM | – | > 100 µM | – | > 100 µM | – | > 100 µM | – | > 100 µM | – | > 100 µM | – | > 100 µM | – | > 100 µM | – | > 100 µM | – | > 100 µM |

From PubChem BioAssay (NCI)
